The source of these data is patent US20230053649A1 (Cedilla Therapeutics, Inc., priority 2021, published 2023).

Molecules are shown by their SMILES. Where only a bound is given, the exact number is not on record here.

Experiment [1] deals with mesothelioma cell line NCI-H226. As to the kind of experiment: 72H TEAD Proliferation Assay (Cell Titer-Glo 2.0). Format: cell-based. The conditions noted are these: Homo sapiens, CTG 2.0, cell line not given in Table 1 (NCI-H226 TEAD-responsive, NCI-H28 non-responsive counter-screen). The protocol: 72H TEAD Proliferation Assay.
The effect of TEAD inhibition on cell proliferation was assayed using Cell Titer Glo (CTG) 2.0 to measure response in mesothelioma cell lines NCI-H226 (ATCC, #CRL-5826) and NCI-H28 (ATCC, #CRL-5820).
The 72H TEAD Proliferation assay utilizes Cell Titer-Glo 2.0 (Promega, #G9243) to measure the proliferation of cells in the presence or absence of compound. Cell Titer-Glo 2.0 determines the amount of viable cells by quantifying ATP (an indication of metabolically active cells). It utilizes the conversion of Luciferin to Oxyluciferin and a luminescent signal with the use of ATP to report the quantity of viable cells in culture. Within cells that are continually growing, ATP is being synthesized to meet their metabolic demands, meanwhile the opposite is true for cells that are dying or slowing down their proliferation and either no longer using ATP or are using less, respectively. The NF2-deficient NCI-H226 has been genetically validated as a cell line that is sensitive to TEAD inhibition. The NF2-wild type NCI-H28 has been genetically validated as a cell line that is not sensitive to TEAD inhibition and grows independently of TEAD activity.
Compounds were screened against the responsive NCI-H226 cell line to assess the compounds' ability to inhibit TEAD and cell growth. Compounds were also screened against the non-responsive NCI-H28 cell line to ascertain whether the inhibition of cell growth was due to inhibition of the target TEAD or whether the inhibition was due to off-target cytotoxicity.
Both NCI-H226 and NCI-H28 cells were grown at 37° C. with 5% CO2 using Growth Medium 1.
Anti-proliferative effect of compounds that inhibits TEAD activity measured by CTG
1) Assay ready plates (ARPs) were prepared by Echo acoustic liquid handler. For each compound, duplicate of 10-point half-log dilution series were dispensed in a 384-well microplate (Corning 3571).
3) Before use, ARPs were allowed to warm up to room temperature for 30 min.
4) ARPs were spun for 5 minutes at 1500RPM before removing the plate seals.
5) NCI-H226 or NCI-H28 cells were harvested from culture in Assay Medium 1 and the multidrop Combi reagent dispenser was used to seed cells at 500 cells per 50ul in each well of the ARPs and one Corning 3571 plate without compounds for Time 0 (TO) readout.
6) The TO plate was incubated for 2 hours at 37° C. with 5% CO2 to allow cells to settle, then the CTG Assay was performed.
7) All ARPs were incubated for 72 hours at 37° C. with 5% CO2, then the CTG Assay was performed for Time 72H (T72) readout.
8) CTG Assay: Bravo liquid handler (Agilent) was used to add 25ul of CTG 2.0 to all columns of the plate except for Column 24, which was used to subtract out the background. After CTG addition, plates were placed on shaker at 800RPM for 15 minutes at room temperature and kept in the dark. Luminescence was measured using EnVision multilabel plate reader with ultra-sensitive detection module.
9) Data Analysis: First background luminescence (no CTG wells) was subtracted from luminescence reading of all wells, then TO luminescence was subtracted from T72 luminescence. To compare anti-proliferative effect of compounds, GI50 was obtained by fitting dose response curves with nonlinear regression curve fit.
A general note: ATP-based viability assays read luminescence as a measure of living cells.

Experiment [2] deals with TEAD1 protein (YAP Binding Domain) (Homo sapiens, UniProt P28347). As to the kind of experiment: biochemical.
Sequence of TEAD1 protein (YAP Binding Domain) (P28347 167-426 limits assumed): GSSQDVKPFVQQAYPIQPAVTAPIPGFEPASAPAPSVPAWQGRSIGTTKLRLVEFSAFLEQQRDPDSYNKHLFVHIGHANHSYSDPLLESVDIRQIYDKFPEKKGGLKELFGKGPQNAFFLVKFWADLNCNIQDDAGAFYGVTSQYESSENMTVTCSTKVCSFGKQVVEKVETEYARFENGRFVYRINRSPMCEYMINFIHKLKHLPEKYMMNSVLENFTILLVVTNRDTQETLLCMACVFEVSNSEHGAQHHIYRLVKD
Procedure: Compound Displacement Assay.
A TEAD1 lipid pocket displacement assay was carried out according to the following protocol. Purified His-tagged TEAD1 protein (YAP Binding Domain) was pre-mixed with a Cy5-probe (Cy5-conjugated to a small molecule that binds in the TEAD1 lipid pocket) and Terbium-labeled anti-His antibody (Cisbio Cat 61HI2TLB). The binding of the Cy5-probe to anti-His-Tb/His-tag TEAD1 complex yielded a TR-FRET signal. […] After 60 minutes incubation at room temperature of compounds with the His-TEAD1/anti-His-Tb/Cy5-probe complex, the plate was read on a plate reader (BMG ClarioStar Cat 430-1300) using TR-FRET mode with wavelengths of 665 nm/620 nm. The potency of compounds as TEAD1 lipid pocket binders was determined by IC50 value generated using a non-linear 4 parameter curve fit.

As to `COC[C@H](C)NC(=O)c1cnc2c(N3CCC(C(F)(F)F)CC3)cc(OC(F)(F)F)cc2c1` [Compound I-23, (S)-N-(1-methoxypropan-2-yl)-6-(trifluoromethoxy)-8-(4-(trifluoromethyl)piperidin-1-yl)quinoline-3-carboxamide], the GI50 (as a rule, the concentration at which growth is held to half of that of the control) in experiment [1] was in the range of 1 to 5 µM. Further, the IC50 (usually the concentration at which inhibition is half-maximal) in experiment [2] is 0.3 to 0.5 µM.

As for `C[C@H](CO)NC(=O)c1ccc2c(N3CCC(C(F)(F)F)CC3)cccc2c1` [Compound I-59, (R)-N-(1-hydroxypropan-2-yl)-5-(4-(trifluoromethyl)piperidin-1-yl)-2-naphthamide], in experiment [1], the GI50 was not above 0.5 µM. In addition, the half-maximal inhibitory concentration (IC50) in experiment [2] was in the range of 0.15 to 0.3 µM.

`COC[C@H](C)NC(=O)c1cnc2c(N3CCC(C(F)(F)F)CC3)cc(OC(F)F)cc2c1` [Compound I-28, (S)-6-(difluoromethoxy)-N-(1-methoxypropan-2-yl)-8-(4-(trifluoromethyl)piperidin-1-yl)quinoline-3-carboxamide] gave a GI50 in experiment [1] of 0.5 to 1 µM. In experiment [2], this molecule displayed an IC50 of 0.15 to 0.3 µM.

Molecule `COc1cc2cc(C(=O)N[C@@H](C)c3ccccn3)ccc2c(N2CCC(C(F)(F)F)CC2)n1` [Compound I-64, (S)-3-methoxy-N-(1-(pyridin-2-yl)ethyl)-1-(4-(trifluoromethyl)piperidin-1-yl)isoquinoline-6-carboxamide] showed a GI50 in experiment [1] not above 0.5 µM. Besides, the IC50 in experiment [2] was less than 0.15 µM.

The molecule `COC[C@H](C)NC(=O)c1cnc2c(N3CCC(C(F)(F)F)CC3)cc(OC)cc2c1` [Compound I-9, (S)-6-methoxy-N-(1-methoxypropan-2-yl)-8-(4-(trifluoromethyl)piperidin-1-yl)quinoline-3-carboxamide] came in with a GI50 in experiment [1] not above 0.5 µM. In addition, in experiment [2], the IC50 fell in the range of 0.15 to 0.3 µM.

`COc1cc(-c2ccc(OC(F)(F)F)cc2F)c2ncc(C(=O)N[C@H](C)CO)cc2c1` [Compound I-21, (R)-8-(2-fluoro-4-(trifluoromethoxy)phenyl)-N-(1-hydroxypropan-2-yl)-6-methoxyquinoline-3-carboxamide] displayed a GI50 in experiment [1] not above 0.5 µM.

In experiment [1], `COc1cc(N2CCC(C(F)(F)F)CC2)c2ncc(C(=O)N3CC(O)C3)cc2c1` [Compound I-11, (3-hydroxyazetidin-1-yl)(6-methoxy-8-(4-(trifluoromethyl)piperidin-1-yl)quinolin-3-yl)methanone] came in with a GI50 of 1 to 5 µM. In experiment [2], this molecule gave an IC50 of more than 0.5 µM.

On to `CC(CO)NC(=O)c1cnc2c(OCC3CCC(F)(F)CC3)cccc2c1` (stereo not drawn) [Compound I-47, 8-((4,4-difluorocyclohexyl)methoxy)-N-(1-hydroxypropan-2-yl)quinoline-3-carboxamide], for which the GI50 in experiment [1] is more than 5 µM. Moreover, in experiment [2], the IC50 was more than 0.5 µM.

On to `COc1cc(N2CCC(C(F)(F)F)CC2)c2ncc(C(=O)N[C@@H](CO)C(C)(C)C)cc2c1` [Compound I-40, (R)-N-(1-hydroxy-3,3-dimethylbutan-2-yl)-6-methoxy-8-(4-(trifluoromethyl)piperidin-1-yl)quinoline-3-carboxamide], for which the GI50 in experiment [1] was in the range of 0.5 to 1 µM. The molecule further displayed an IC50 in experiment [2] of 0.15 to 0.3 µM.

In experiment [1], `C#Cc1ccc(-c2cccc3cc(C(=O)N[C@@H](C)c4ccccn4)cnc23)cc1` [I′-29, (S)-8-(4-ethynylphenyl)-N-(1-(pyridin-2-yl)ethyl)quinoline-3-carboxamide] displayed a GI50 of 1 to 5 µM. Also, in experiment [2], the IC50 is less than 0.15 µM.

`CC[C@H](CO)NC(=O)c1cnc2c(N3CCC(C(F)(F)F)CC3)cc(OC)cc2c1` [Compound I-13, (R)-N-(1-hydroxybutan-2-yl)-6-methoxy-8-(4-(trifluoromethyl)piperidin-1-yl)quinoline-3-carboxamide] displayed a 50% growth inhibitory concentration (GI50) in experiment [1] not above 0.5 µM. The IC50 in experiment [2] is less than 0.15 µM.

Take `C[C@H](NC(=O)c1cnc2c(C#CC(C)(C)C)cccc2c1)c1ccccn1` [Compound 31, (S)-8-(3,3-dimethylbut-1-yn-1-yl)-N-(1-(pyridin-2-yl)ethyl)quinoline-3-carboxamide]: the GI50 in experiment [1] is 1 to 5 µM. In experiment [2], the IC50 was more than 0.5 µM.

In experiment [1], `COC[C@H](C)NC(=O)c1cnc2c(N3CCC(CC(F)(F)F)CC3)cc(OC)cc2c1` [Compound I-5, (S)-6-methoxy-N-(1-methoxypropan-2-yl)-8-(4-(2,2,2-trifluoroethyl)piperidin-1-yl)quinoline-3-carboxamide] had a concentration for 50% growth inhibition (GI50) of 1 to 5 µM. Besides, the IC50 in experiment [2] is less than 0.15 µM.

`COc1cc(N2CCC(C(F)(F)F)CC2)c2ncc(C(=O)NC(C)(C)CO)cc2c1` [Compound I-10, N-(1-hydroxy-2-methylpropan-2-yl)-6-methoxy-8-(4-(trifluoromethyl)piperidin-1-yl)quinoline-3-carboxamide] displayed a GI50 in experiment [1] of 1 to 5 µM. In experiment [2], this molecule came in with an IC50 of 0.3 to 0.5 µM.

Regarding `C[C@H](CO)NC(=O)c1cnc2c(N3CCC4(CC3)CC4)cc(OC3CC3)cc2c1` [Compound I-25, (R)-6-cyclopropoxy-N-(1-hydroxypropan-2-yl)-8-(6-azaspiro[2.5]octan-6-yl)quinoline-3-carboxamide], the GI50 in experiment [1] was in the range of 1 to 5 µM. The same molecule yielded an IC50 in experiment [2] of more than 0.5 µM.

The molecule `CCOc1cc2cc(C(=O)N[C@H](C)CO)ccc2c(N2CCC(C(F)(F)F)CC2)n1` [Compound I-62, (R)-3-ethoxy-N-(1-hydroxypropan-2-yl)-1-(4-(trifluoromethyl)piperidin-1-yl)isoquinoline-6-carboxamide] gave a GI50 in experiment [1] not above 0.5 µM. The molecule further registered an IC50 in experiment [2] of less than 0.15 µM.

In experiment [1], `COc1cc(-c2ccc(OC(F)(F)F)cc2)c2ncc(C(=O)N[C@H](C)CO)cc2c1` [Compound I-15, (R)-N-(1-hydroxypropan-2-yl)-6-methoxy-8-(4-(trifluoromethoxy)phenyl)quinoline-3-carboxamide] gave a concentration for 50% growth inhibition (GI50) not above 0.5 µM. The same molecule returned an IC50 in experiment [2] of less than 0.15 µM.

Molecule `C[C@H](CO)NC(=O)c1cnc2c(N3CCC(C(F)(F)F)CC3)cccc2c1` [Compound I-60, (R)-N-(1-hydroxypropan-2-yl)-8-(4-(trifluoromethyl)piperidin-1-yl)quinoline-3-carboxamide] gave a GI50 in experiment [1] of 0.5 to 1 µM. This molecule displayed an IC50 in experiment [2] of 0.15 to 0.3 µM.

For the molecule `COc1cc(N2CCC(C(C)(C)C)CC2)c2ncc(C(=O)N[C@H](C)CO)cc2c1` [Compound I-2, (R)-8-(4-(tert-butyl)piperidin-1-yl)-N-(1-hydroxypropan-2-yl)-6-methoxyquinoline-3-carboxamide], the GI50 in experiment [1] is not above 0.5 µM. Besides, the IC50 in experiment [2] fell in the range of 0.3 to 0.5 µM.

In the case of `COc1cc(-c2ccc(C(C)(C)O)cc2)c2ncc(C(=O)N[C@H](C)CO)cc2c1` [I′-34, (R)-N-(1-hydroxypropan-2-yl)-8-(4-(2-hydroxypropan-2-yl)phenyl)-6-methoxyquinoline-3-carboxamide], the GI50 in experiment [1] was more than 5 µM. This molecule gave an IC50 in experiment [2] of 0.3 to 0.5 µM.

With `COc1cc(N2CCC3(CCCC3)CC2)c2ncc(C(=O)N[C@H](C)CO)cc2c1` [Compound I-4, (R)-N-(1-hydroxypropan-2-yl)-6-methoxy-8-(8-azaspiro[4.5]decan-8-yl)quinoline-3-carboxamide], the GI50 in experiment [1] fell in the range of 0.5 to 1 µM. In experiment [2], the IC50 lay within 0.15 to 0.3 µM.

As to `COc1cc(N2CCC(C(F)(F)F)CC2)c2ncc(C(=O)N[C@@H](C)COC(F)(F)F)cc2c1` [Compound I-12, (S)-6-methoxy-N-(1-(trifluoromethoxy)propan-2-yl)-8-(4-(trifluoromethyl)piperidin-1-yl)quinoline-3-carboxamide], the GI50 in experiment [1] is not above 0.5 µM. The molecule also showed an IC50 in experiment [2] of more than 0.5 µM.

As for `C[C@H](CO)NC(=O)c1cnc2c(N3CCC4(CC3)CC4)cc(OC(F)F)cc2c1` [Compound I-27, (R)-6-(difluoromethoxy)-N-(1-hydroxypropan-2-yl)-8-(6-azaspiro[2.5]octan-6-yl)quinoline-3-carboxamide], in experiment [1], the concentration for 50% growth inhibition (GI50) was in the range of 1 to 5 µM.

`CC(CO)NC(=O)c1ccc2c(OCc3ccc(C(F)(F)F)cc3)cccc2c1` (stereo not drawn) [Compound I-44, N-(1-hydroxypropan-2-yl)-5-((4-(trifluoromethyl)benzyl)oxy)-2-naphthamide] had a GI50 in experiment [1] of more than 5 µM.
